{
  "source": "patent EP4089103A1",
  "about": "“CLPCP PROTEASE-BINDING CYCLIC HEPTAPEPTIDES” (priority 2021, dated 2022)",
  "key": {"[1]": {"tested_on": "BRDTBD1 expressed in M. smegmatis cells", "test": "In vivo degradation assay in live mycobacteria, capillary western (Wes)", "type": "cell-based, M. smegmatis mc^2-155", "settings": "100 µM, 10 µM or 1 µM BacPROTAC-3, 100 µM sCym-1 or 100 µM JQ1; 2 hours incubation; Figure 3", "description": "After validating the activity of the compound Cym_bacPROTAC_3 in vitro, the compound was investigated in an in vivo degradation assay in a cellular environment. For the in vivo degradation assay Msm cells stably expressing BRDTBD1 were used. The culture was treated with the compound Cym_bacPROTAC_3 or alternatively, the individual building blocks sCym-1 and JQ1. After two hours incubation, BRDTBD1 levels were quantified using capillary western as detailed below.\nA stationary culture of M. smegmatis mc^2-155 carrying a plasmid BRDTBD1 expression was diluted 1:200 in 50 mL 7H9 medium supplemented with 50 µg/mL hygromycin. The culture was grown at 37 °C with vigorous shaking to an OD600 of ∼1. Expression of BRDTBD1 was then induced by addition of 200 µL 50% acetamide in H2O. […]\nThe amounts of BRDTBD1 in the lysates were quantified using Wes (ProteinSimple), a capillary electrophoresis-based western blot technology. Bacterial lysates were diluted 2-fold and analysed using the 12-230 kDa Wes Separation Module (Protein simple, SM-W004) following the manufacturer's instructions. […] BRDTBD1 was detected using the Anti-Rabbit Detection Module for Wes (ProteinSimple, DM-001), which includes a peroxidase-conjugated secondary antibody and a chemiluminescent substrate. Results were analysed using the Compass for SW software (ProteinSimple). […]"}, "[2]": {"tested_on": "mycobacterial proteome (2912 proteins) incl. BRDTBD1", "test": "Selectivity of protein degradation, TMT mass spectrometric analysis of Msm lysates", "type": "cell-based, M. smegmatis", "settings": "TMT MS, triplicate analysis, Figure 4", "description": "To address this point, a tandem mass tag (TMT) mass spectrometric (MS) analysis of Msm lysates was performed.\nThus, the TMT MS analysis provides compelling evidence that the compound Cym_bacPROTAC_3 is capable of inducing degradation of the BRDTBD1 substrate in a highly specific and efficient manner."}},
  "data": [
    {"smiles": "Cc1sc2c(c1C)C(c1ccc(Cl)cc1)=N[C@@H](CC(=O)OC(C)(C)C)c1nnc(C)n1-2", "note": "[JQ1]", "values": [
      {"measurement": "BRDTBD1 levels after treatment", "setting": "[1]", "value": "did not affect BRDTBD1 levels"},
      {"measurement": "change in protein abundance versus vehicle (DMSO)", "setting": "[2]", "value": "did not affect BRDTBD1 levels and did also not cause global effects"}
    ]}
  ]
}
